In patent US20040259732A1, “Treatment of plants and plant propagation materials with an antioxidant to improve plant health and/or yield” (Monsanto Technology, L.L.C., priority 2003, published 2004):

Columns and labels:
Hybrid "B" corn seeds = test: Cold condition germination test (Test 3), Hybrid B corn seeds; type: in vivo; conditions: 10° C.
Procedure: (§1) This test was designed to measure the ability of seeds to germinate under adverse condition associated with high moisture and low temperature. Test 3-This test was conducted as described above in Test 1, except that the Petri dishes were incubated at a constant temperature of 10° C. Germination rate was determined as described above in Test 1. The test length continued for 30 days as the seeds are very slow to germinate under these conditions.

[1] = test system: Soybean plantlets (Hybrid AG3303); test: Fresh weight accumulation after cold shock, soybean plantlets; type: in vivo; conditions: seed treated with 10-20 g/100 kg; one week 22° C./13° C.; measured 10 days after return to greenhouse
Procedure: Soybean plantlets (Hybrid AG3303, available from Asgrow Seed Co., St. Louis, Mo.) that were grown in a greenhouse maintained at day/night temperatures of 30° C. day and 25° C. night and with a 12 hour light period. The seed had been treated with different levels of glycinebetaine and were grown in optimum greenhouse conditions until they reached the first trifoliate stage of development. The plants were then moved from the greenhouse and subjected to 22° C./13° C. day/night temperatures for one week in a Conviron growth chamber. After one week the plants were returned to the greenhouse for “recovery” in optimal conditions. The fresh weight accumulation of the plantlets was then measured after 10 days following their return to the greenhouse.

cotton seeds = conditions: treated cotton seeds; cited from earlier work
carrot seed = carrot seed treatment; cited from earlier work
carrot seeds = conditions: seed soak: gibberellic acid 1 and 100 microgram/l, Ambiol 0.1 mg/l, glycinebetaine 100 mg/l; cited from earlier work
[2] = test system: Corn seeds (Hybrid LH176rr1.4(LH224×LH226)); type: in vivo; conditions: field trial
Procedure: Corn seeds (Hybrid LH176rr1.4(LH224×LH226, available from Holden's Foundation Seeds, Inc., Williamsburg, Iowa) were treated with an antioxidant, alone or in combination with a pesticide (silthiofam, available from Monsanto Co., St. Louis, Mo., under the trade name […]®, 11.83% w/w silthiofam) according to the rates shown in Table 3.
(§2) Samples of seed having each type of treatment shown in Table 3 were planted in a controlled field trial in the upper Midwestern United States. Conservation tillage practices were adhered to and planting was accomplished during the first 10% of the crop that got planted in that area. During the trial, the plant density (number of plants per acre) and the corn yield (bu/acre) were measured.

Hybrid "A" corn seeds = test: Cold condition germination test (Test 3), Hybrid A corn seeds; type: in vivo; conditions: 10° C.
Procedure: as §1

[3] = test system: Corn plantlets (Hybrid LH176rr1.4(LH224×LH226)); test: Fresh weight accumulation after cold stress, corn plantlets; type: in vivo; conditions: seed treated with 50-100 g/100 kg; 6 days 18° C./12° C.
[4] = test system: Hybrid "A" (cold tolerant) corn; conditions: 10° C.; 25 g/100 kg seed
Procedure: (§3) This test was designed to measure the emergence of plantlets from sprouted seeds under conditions that more closely resemble those found in field conditions.
(§4) For each sample batch of seed to be tested, 10 seeds were placed on ½″ of soil medium in a test tray and covered with an additional 2″ of soil medium. Three replications were prepared for each sample batch. The soil is moistened regularly and placed in the desired temperature regime. For a cold emergence test, trays are incubated at 10° C. with 16 hours of light. The tray is monitored daily over a 30-day period and a seed is counted as emerged when the spike breaks through the surface of the soil. Percent emergence is calculated as the number of emerged plantlets divided by the total number of seeds that were planted, times 100.
(§5) Corn hybrids “A” and “B”, as described above were treated with choline chloride at levels of 0, 10, 25 and 50 g/100 kg of seed. Each batch of seed was tested under 10° C. incubation conditions for emergence from a soil medium as described above.

[5] = test system: Hybrid "B" (cold sensitive) corn; conditions: 10° C.
Procedure: as §3, §4, §5

corn seed = test: Field trials, emergence in cold conditions by seed treatment rate; type: in vivo; conditions: rates from 25 g/100 Kg to 250 g/100 Kg
Procedure: as §2

corn seeds = conditions: optimum (warm) conditions; any of the treatment levels tested (10-250 g/100 kg seed)
Procedure: Test 1—Ten seeds for each sample to be tested are placed in each of ten Petri dishes with 5 ml of distilled water and incubated at 30° C. day and 20° C. night with a 16 hour day length. Each day the Petri dishes were checked and scored for germination. Percent germination was determined as the average number of seeds which had germinated within the test period minus any abnormal seeds, divided by the total number of original seeds, times 100. A seed was considered germinated when the radical reached a length of 1 cm.
Test 2—Test 2 is much closer to an industry standard for optimum condition testing. Test seeds are placed on a moist paper towel and then covered with a second moist paper towel. The towel is then rolled into a cylinder and placed upright in a beaker containing water. The beaker is placed in an incubation chamber at 25° C. for 7 days in continuous darkness. After 7 days the number of seeds germinated are counted and converted to a percentage of seeds in the test. This test is used to determine the maximum germination potential of the seed.
After treatment, each seed sample was tested for germination in as described in Test 1, Test 2 and Test 3, as described above.

[6] = test system: seeds of black spruce and jack pine; conditions: seed soak at 0, 0.1, and 10 mg/l; cited from earlier work

C[N+](C)(C)CC(=O)[O-] [glycinebetaine]
50% germination earlier than untreated control (Hybrid "B" corn seeds; 50 g/100 kg): three-day earlier germination
50% germination earlier than untreated control (Hybrid "B" corn seeds; 100 g/100 kg): three-day earlier germination
fresh weight accumulation following the cold shock [1]: greater fresh weight accumulation
drought tolerance (cotton seeds): improvement in drought tolerance
germination in carrots (carrot seed): hastened germination
emergence of seedlings (carrot seeds): accelerated emergence of seedlings

C=CCNC(=O)c1c([Si](C)(C)C)sc(C)c1C [silthiofam, 4,5-dimethyl-N-(2-propenyl)-2-(trimethylsilyl)-3-thiophenecarboxamide]
corn yield improvement over untreated control ([2]; rates of Table 3 (silthiofam 25, choline chloride 250, glycinebetaine 50, BHA/BHT 10 g/100 kg seed), FIGS. 7B and 7C): ~20%
corn plant density (number of plants per acre) ([2]; rates of Table 3, FIG. 7A): significant improvement in corn plant density

C[N+](C)(C)CCO.[Cl-] [choline chloride]
50% germination earlier than untreated control (Hybrid "A" corn seeds; 100 g/100 kg (best rate)): two days earlier
effect on germination rate (Hybrid "A" corn seeds; lower treatment rates, FIG. 1A / FIG. 2A): substantially the same effect
50% germination earlier than untreated control (Hybrid "B" corn seeds; 50 g/100 kg): three days earlier
50% germination earlier than untreated control (Hybrid "B" corn seeds; 100 g/100 kg): three days earlier
fresh weight accumulation after cold shock vs untreated seed [3]: tendency for greater fresh weight accumulation
50% emergence earlier than untreated control [4]: three days before the untreated control
day on which 50% emergence was reached [4]: 22 days
days after seeding at which 50% germination was reached ([5]; 10 g/100 kg seed): 29 days
increase in germination time over untreated control ([5]; 10 g/100 kg seed, study end 31 days): minimum of two days
first evidence of emergence ([5]; 10 g/100 kg treated seed): 21 days
emergence as a function of rate (corn seed): emergence is found to increase with the increase of the rate
effect on germination under normal growing conditions (corn seeds): no negative effects on germination

C=C1C[C@]23C[C@@]1(O)CC[C@H]2[C@@]12C=C[C@H](O)[C@@](C)(C(=O)O1)[C@H]2[C@@H]3C(=O)O [gibberellic acid]
emergence of seedlings (carrot seeds): accelerated emergence of seedlings

Cc1nc2ccc(O)c(CN(C)C)c2[nH]1 [Ambiol, 2-methyl-4-[dimethylaminomethyl]-5-hydroxybenzimidazole]
germination in carrots (carrot seed): hastened germination
membrane leakage [6]: reduced membrane leakage
emergence of seedlings (carrot seeds): accelerated emergence of seedlings
